Reference: patent US7914478B2, “Intrapelvic perfusion therapy with cancer therapeutic agent and apparatus for intrapelvic perfusion with cancer therapeutic agent” (priority 2002, dated 2011)

Parameters: species or system patients
Settings: human, in vivo
Description: The intrapelvic perfusion therapy with cancer therapeutic agent of the present invention was carried out as explained below.
The perfusion was continued 30 minutes with keeping the difference between injection and aspiration flow rate was kept 20-25 [ml/min]. After performing this intrapelvic perfusion therapy, the blood of the intrapelvic circulation was dialyzed for 30 min.

SMILES: N.N.[Cl][Pt][Cl] [Cisplatin]
- percentage of drug leading from pelvic to systemic compartment during drug infusion: about 20%
